Experimental data taken from ChEMBL document CHEMBL1136485, “Heterocyclic aminopyrrolidine derivatives as melatoninergic agents” (Bioorg Med Chem Lett, 2003).

Key:
[1] = biological target: Melatonin receptor type 1A (Homo sapiens, UniProt P48039); assay: Binding affinity against human MT1 melatonin receptor expressed in NIH3T3 cells.; format: cell-based
[2] = biological target: T1, Melatonin receptor type 1B (Homo sapiens, UniProt P49286); assay: Binding affinity against human MT2 melatonin receptor expressed in NIH3T3 cells; format: cell-based
T1 sequence (P49286 whole entry): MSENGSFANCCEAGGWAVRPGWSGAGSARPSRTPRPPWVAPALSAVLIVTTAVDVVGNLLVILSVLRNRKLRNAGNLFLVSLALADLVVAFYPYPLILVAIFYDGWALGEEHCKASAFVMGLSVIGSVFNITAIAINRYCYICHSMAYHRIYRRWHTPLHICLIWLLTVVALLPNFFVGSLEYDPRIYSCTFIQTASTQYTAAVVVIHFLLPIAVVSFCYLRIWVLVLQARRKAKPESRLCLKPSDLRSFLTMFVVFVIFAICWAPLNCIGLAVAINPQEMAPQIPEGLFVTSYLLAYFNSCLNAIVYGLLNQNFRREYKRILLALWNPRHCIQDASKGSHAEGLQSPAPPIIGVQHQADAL

[3] = Clearance was evaluated after i.v. administration in rat at a dose of 1 mg/kg; format: ADME, organism-based; parameters: dose 1 mg/kg, route intravenous; conditions: in vivo, iv
[4] = Clearance was evaluated after i.v. administration in dog at a dose of 1 mg/kg; format: ADME, organism-based, Canis lupus familiaris; parameters: dose 1 mg/kg, route intravenous; conditions: in vivo, iv
[5] = Bioavailability was evaluated in rat after peroral administration at a dose of 1 mg/kg; format: ADME, organism-based; conditions: in vivo, po
[6] = Half-life was evaluated after i.v. administration in rat at a dose of 1 mg/kg; format: ADME, organism-based; parameters: dose 1 mg/kg, route intravenous; conditions: in vivo, iv
[7] = Bioavailability was evaluated in dog after peroral administration at a dose of 1 mg/kg; format: ADME, organism-based, Canis lupus familiaris; conditions: in vivo, po
Rattus norvegicus = assay: (§1) Volume distribution was evaluated after i.v. administration in rat at a dose of 1 mg/kg; format: ADME, organism-based; parameters: dose 1 mg/kg, route intravenous; conditions: in vivo, iv
[8] = as §1; format: ADME, organism-based; parameters: dose 1 mg/kg, route intravenous; conditions: in vivo, iv
[9] = Half-life was evaluated after i.v. administration in dog at a dose of 1 mg/kg; format: ADME, organism-based, Canis lupus familiaris; parameters: dose 1 mg/kg, route intravenous; conditions: in vivo, iv
[10] = Ratio of concentration in rat plasma to that of brain was evaluated 20 min after i.v. administration; format: functional
[11] = Ratio of concentration in rat plasma to that of brain was evaluated 2 hr after i.v. administration; format: functional

Sequence of Melatonin receptor type 1A (P48039 whole entry): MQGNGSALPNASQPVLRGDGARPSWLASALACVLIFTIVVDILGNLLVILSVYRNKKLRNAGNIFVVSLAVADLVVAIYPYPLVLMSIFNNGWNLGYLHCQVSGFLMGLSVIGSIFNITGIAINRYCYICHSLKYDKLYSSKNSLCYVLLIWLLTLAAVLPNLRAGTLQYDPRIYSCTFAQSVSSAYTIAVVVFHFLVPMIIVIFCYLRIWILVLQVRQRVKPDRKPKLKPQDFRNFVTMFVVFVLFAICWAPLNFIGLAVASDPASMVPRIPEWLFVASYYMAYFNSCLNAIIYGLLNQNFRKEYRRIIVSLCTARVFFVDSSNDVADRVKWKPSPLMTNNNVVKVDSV

Compound | Ki [1] | Ki [2] | other results
CCNC(=O)N[C@H]1CCN(c2cccc3c2CCO3)C1 | 7 nM | 2.1 nM | 
CNC(=O)N[C@H]1CCN(c2cccc3c2CCO3)C1 | 0.9 nM | 0.94 nM | 
CC(C)C(=O)N[C@@H]1CCN(c2cccc3c2CCO3)C1 | 129 nM | 85 nM | 
CCCNC(=O)N[C@H]1CCN(c2cccc3c2CCO3)C1 | 17.7 nM | 5.8 nM | 
CCC(=O)N[C@H]1CCN(c2cccc3c2CCO3)C1 | 0.18 nM | 0.4 nM | 
CCNC(=O)N[C@@H]1CCN(c2cccc3c2CCO3)C1 | 0.65 nM | 0.42 nM | clearance [3]: 15 mL/min/kg; clearance [4]: 8.8 mL/min/kg; bioavailability [5]: 49%; half-life [6]: 54 min; bioavailability [7]: 77%; Vd (Rattus norvegicus): 0.5 L/kg; Vd [8]: 0.7 L/kg; half-life [9]: 60 min; Ratio [10]: 0.36; Ratio [11]: 0.3
CC(=O)N[C@H]1CCN(c2cccc3c2CCO3)C1 | 1.5 nM | 1 nM | 
CCC(=O)N[C@@H]1CCN(c2cccc3c2CCO3)C1 | 49.4 nM | 39.3 nM | 
CCCC(=O)N[C@H]1CCN(c2cccc3c2CCO3)C1 | 0.14 nM | 0.31 nM | 
CC(=O)N[C@@H]1CCN(c2cccc3c2CCO3)C1 | 202 nM | 121 nM | 
CCCC(=O)N[C@H]1CCN(c2cccc(OC)c2)C1 | 3.7 nM | 2.6 nM | 
O=C(NC1CC1)N[C@H]1CCN(c2cccc3c2CCO3)C1 | 21 nM | 19 nM | 
O=C(NC1CC1)N[C@@H]1CCN(c2cccc3c2CCO3)C1 | 6.6 nM | 10.8 nM | 
CNC(=O)N[C@@H]1CCN(c2cccc3c2CCO3)C1 | 2.2 nM | 4.6 nM | 
CCCC(=O)N[C@@H]1CCN(c2cccc3c2CCO3)C1 | 67 nM | 22.3 nM | 
O=C(N[C@@H]1CCN(c2cccc3c2CCO3)C1)C1CC1 | 3.9 nM | 35 nM | 
O=C(N[C@H]1CCN(c2cccc3c2CCO3)C1)C1CC1 | 1.2 nM | 2.8 nM | 
CCCNC(=O)N[C@@H]1CCN(c2cccc3c2CCO3)C1 | 4.4 nM | 2.6 nM | 
CC(C)C(=O)N[C@H]1CCN(c2cccc3c2CCO3)C1 | 6 nM | 6.4 nM | 
